By IC50 is commonly meant the concentration at which inhibition is half-maximal. What is called EC50 is the concentration giving half of the maximal effect. As a reminder, the AC50 is the midpoint of the concentration-response curve, whichever way the signal moves.

Our source for the IC50, EC50 and AC50 values is ChEMBL document CHEMBL1201862, “PubChem BioAssay data set” (2004).

Each structure is given as a SMILES string. Active and inactive are the calls of the source.

Series [1] addresses T1, Fructose-bisphosphate aldolase (Mycobacterium tuberculosis, UniProt P9WQA3).
T1 sequence (P9WQA3 whole entry): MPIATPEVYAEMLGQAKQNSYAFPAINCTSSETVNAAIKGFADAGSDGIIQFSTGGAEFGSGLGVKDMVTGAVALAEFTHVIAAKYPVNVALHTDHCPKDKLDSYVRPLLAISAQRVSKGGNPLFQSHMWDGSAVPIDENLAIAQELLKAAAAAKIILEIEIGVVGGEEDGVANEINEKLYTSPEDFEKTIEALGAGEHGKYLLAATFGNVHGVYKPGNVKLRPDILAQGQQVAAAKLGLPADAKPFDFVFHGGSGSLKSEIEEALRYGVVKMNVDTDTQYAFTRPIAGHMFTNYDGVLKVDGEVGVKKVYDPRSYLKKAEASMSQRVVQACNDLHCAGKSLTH
The series can be described thus: Fluorescence-based biochemical high throughput dose response assay for inhibitors of the fructose-bisphosphate aldolase (FBA) of M. tuberculosis. It counts as functional.

Series [2] addresses T2, Short transient receptor potential channel 4 (Mus musculus, UniProt Q9QUQ5).
T2 sequence (Q9QUQ5 whole entry): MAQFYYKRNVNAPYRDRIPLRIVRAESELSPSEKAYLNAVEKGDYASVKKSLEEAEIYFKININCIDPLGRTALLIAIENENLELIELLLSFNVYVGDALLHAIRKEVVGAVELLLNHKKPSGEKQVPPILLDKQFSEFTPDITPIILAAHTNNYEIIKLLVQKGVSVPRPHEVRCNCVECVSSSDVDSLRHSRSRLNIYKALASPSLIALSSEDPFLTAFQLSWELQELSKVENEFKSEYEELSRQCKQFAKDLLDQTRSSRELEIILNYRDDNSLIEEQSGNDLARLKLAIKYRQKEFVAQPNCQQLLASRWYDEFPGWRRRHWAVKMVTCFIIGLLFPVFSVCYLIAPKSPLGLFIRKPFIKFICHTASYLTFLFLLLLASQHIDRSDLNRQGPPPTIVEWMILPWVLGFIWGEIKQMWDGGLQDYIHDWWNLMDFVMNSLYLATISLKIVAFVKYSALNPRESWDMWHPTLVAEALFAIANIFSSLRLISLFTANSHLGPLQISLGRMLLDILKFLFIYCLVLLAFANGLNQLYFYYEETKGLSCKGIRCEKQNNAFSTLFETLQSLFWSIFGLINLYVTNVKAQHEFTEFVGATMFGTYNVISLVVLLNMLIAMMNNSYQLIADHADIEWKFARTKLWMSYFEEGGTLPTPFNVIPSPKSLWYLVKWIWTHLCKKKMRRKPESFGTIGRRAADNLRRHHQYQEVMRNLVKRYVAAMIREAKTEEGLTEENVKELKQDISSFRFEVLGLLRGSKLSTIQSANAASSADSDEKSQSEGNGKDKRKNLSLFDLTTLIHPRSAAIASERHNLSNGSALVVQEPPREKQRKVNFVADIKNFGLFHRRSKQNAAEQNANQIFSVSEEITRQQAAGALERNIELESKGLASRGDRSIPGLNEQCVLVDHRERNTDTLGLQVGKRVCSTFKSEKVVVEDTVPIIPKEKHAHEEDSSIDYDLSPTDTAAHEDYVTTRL
Put plainly: mouse TRPC4 channel inhibitors, dose response, cell-based, HEK293 TRPC4/mu-opioid, Fluo-4 calcium (AID 434942).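 Note: potency of inhibitors blocking the TRPC4 calcium response.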 The format is functional.

Series [3] concerns H4. The series can be described thus: Luminescence Cell-Based Dose Response HTS to Identify Activators of 5'UTR Stem-Loop Driven Prion Protein mRNA Translation in H4 Neuroglioblastoma Cells. [Related pubchem assays: 1829 (Project Summary), 1814 (Primary HTS)]. It counts as functional. The conditions noted are these: Homo sapiens.
Series [4] has as its target T3, Nuclear receptor subfamily 0 group B member 1 (Homo sapiens, UniProt P51843).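 Note: HEK293T cells transfected with SF-1 and DAX-1 plus StAR promoter luciferase reporter.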
T3 sequence (P51843 whole entry): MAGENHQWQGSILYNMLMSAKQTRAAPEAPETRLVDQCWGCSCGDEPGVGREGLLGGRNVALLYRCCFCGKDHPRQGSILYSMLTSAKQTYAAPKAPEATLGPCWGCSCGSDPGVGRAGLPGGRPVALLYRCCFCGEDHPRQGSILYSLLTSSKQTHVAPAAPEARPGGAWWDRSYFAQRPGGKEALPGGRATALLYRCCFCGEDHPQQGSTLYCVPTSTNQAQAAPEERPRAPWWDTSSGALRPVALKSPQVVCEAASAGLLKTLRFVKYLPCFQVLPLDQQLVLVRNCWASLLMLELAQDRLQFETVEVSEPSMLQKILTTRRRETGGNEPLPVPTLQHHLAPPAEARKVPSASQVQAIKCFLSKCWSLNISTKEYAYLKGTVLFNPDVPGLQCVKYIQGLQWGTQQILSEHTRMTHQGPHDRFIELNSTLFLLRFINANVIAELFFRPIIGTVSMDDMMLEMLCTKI
It counts as functional, cell-based.

Series [5] in a line: Luminescence Cell-Based Dose Response HTS to Identify Activators of Luciferase Translation or Activity in H4 […] Cells. [Related pubchem assays: 1829 (Project Summary), 1814 (Primary HTS)]. The format is functional.
A short description of series [6]: Luminescence Cell-Based Dose Confirmation HTS to Identify Activators of 5'UTR Stem-Loop Driven Alpha-Synuclein mRNA Translation in H4 Neuroglioblastoma Cells. [Related pubchem assays: 1829 (Project Summary), 1814 (Primary HTS)]. The format is functional.
Series [7] can be described thus: cells. The format is functional, cell-based.
Series [8] concerns the target T4, Long-chain-fatty-acid--AMP ligase FadD28 (Mycobacterium tuberculosis, UniProt P9WQ59).
T4 sequence (P9WQ59 whole entry): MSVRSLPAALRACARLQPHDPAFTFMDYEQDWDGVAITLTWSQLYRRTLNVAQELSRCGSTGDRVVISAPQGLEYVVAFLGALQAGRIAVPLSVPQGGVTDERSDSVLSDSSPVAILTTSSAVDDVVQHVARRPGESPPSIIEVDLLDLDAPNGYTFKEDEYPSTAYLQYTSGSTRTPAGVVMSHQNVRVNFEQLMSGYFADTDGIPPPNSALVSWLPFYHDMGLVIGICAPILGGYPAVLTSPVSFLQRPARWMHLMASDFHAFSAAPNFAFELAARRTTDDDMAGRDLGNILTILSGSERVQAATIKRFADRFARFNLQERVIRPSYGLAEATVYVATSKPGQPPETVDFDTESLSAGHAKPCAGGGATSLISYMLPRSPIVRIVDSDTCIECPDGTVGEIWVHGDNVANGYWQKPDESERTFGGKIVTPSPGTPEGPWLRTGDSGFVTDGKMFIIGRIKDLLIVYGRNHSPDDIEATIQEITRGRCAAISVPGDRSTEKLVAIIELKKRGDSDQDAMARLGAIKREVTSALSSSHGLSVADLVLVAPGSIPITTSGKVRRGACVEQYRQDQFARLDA
Put plainly: Fluorescence polarization aasay to screen for inhibitors that compete for the binding of FadD28 to a bisubstrate Measured in Biochemical System Using Plate Reader - 2147-01_Inhibitor_Dose_CherryPick_Activity. It counts as functional, Mycobacterium tuberculosis H37Rv. Background: In fluorescence polarisation assays a small probe gives low polarisation when free and higher when bound to something large.

Series [9] deals with T5, Aminopeptidase N (Plasmodium falciparum FcB1/Columbia, UniProt O96935).
T5 sequence (O96935 whole entry): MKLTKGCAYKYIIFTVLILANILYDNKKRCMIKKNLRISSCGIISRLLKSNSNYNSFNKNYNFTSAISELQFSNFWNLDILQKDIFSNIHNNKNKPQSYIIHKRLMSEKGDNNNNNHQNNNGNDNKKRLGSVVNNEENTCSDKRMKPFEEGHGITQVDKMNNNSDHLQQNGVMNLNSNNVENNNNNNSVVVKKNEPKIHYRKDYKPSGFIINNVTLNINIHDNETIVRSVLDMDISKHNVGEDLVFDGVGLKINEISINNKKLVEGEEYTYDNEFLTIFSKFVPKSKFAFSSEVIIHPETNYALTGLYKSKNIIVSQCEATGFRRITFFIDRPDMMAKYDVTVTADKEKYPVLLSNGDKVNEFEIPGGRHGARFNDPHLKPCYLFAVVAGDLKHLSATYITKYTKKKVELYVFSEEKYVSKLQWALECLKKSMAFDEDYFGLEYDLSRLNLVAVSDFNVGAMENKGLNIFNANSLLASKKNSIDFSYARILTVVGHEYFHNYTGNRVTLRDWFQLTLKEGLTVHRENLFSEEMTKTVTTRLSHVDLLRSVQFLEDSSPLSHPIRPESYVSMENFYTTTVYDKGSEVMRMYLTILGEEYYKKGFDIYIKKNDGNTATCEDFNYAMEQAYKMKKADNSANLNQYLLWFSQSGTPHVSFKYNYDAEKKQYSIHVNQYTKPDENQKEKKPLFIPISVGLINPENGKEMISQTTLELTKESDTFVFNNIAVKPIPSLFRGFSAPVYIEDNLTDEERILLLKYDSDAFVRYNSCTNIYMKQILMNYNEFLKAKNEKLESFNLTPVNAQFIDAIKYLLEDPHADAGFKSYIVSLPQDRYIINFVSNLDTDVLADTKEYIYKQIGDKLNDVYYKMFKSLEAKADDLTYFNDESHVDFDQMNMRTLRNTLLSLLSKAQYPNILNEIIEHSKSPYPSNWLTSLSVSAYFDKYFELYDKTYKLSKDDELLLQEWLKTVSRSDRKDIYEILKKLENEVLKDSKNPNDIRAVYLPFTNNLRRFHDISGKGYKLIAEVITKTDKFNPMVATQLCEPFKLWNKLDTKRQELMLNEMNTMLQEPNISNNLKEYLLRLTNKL
The series can be described thus: P. falciparum M1AAP inhibitors, biochemical, fluorogenic H-Leu-NHMec substrate, 1536-well (AID 1445). Further details: species or system Plasmodium falciparum 3D7, 3D7.

In series [10] the test system is Streptococcus. The series can be described thus: Group A Streptococcus viability loss, dose response, counter-screen for streptokinase expression inhibitor project, luminescence, BacTiterGlo (AID 1915).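 Note: potency for reduction of bacterial viability or growth.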 It counts as functional, organism-based.
Series [11] deals with Streptococcus sp. 'group A'. The series can be described thus: growth inhibition of control SK(-) GAS strain, dose response, counter-screen for streptokinase expression inhibitor project, luminescence, kanamycin, BacTiterGlo, confirmation (AID 1900). It counts as functional, organism-based. A general note: A counterscreen serves to expose hits that act by an unwanted route or on another target.

Series [12] concerns the target T6, Streptokinase A (Streptococcus pyogenes serotype M1, UniProt P10520).
T6 sequence (P10520 whole entry): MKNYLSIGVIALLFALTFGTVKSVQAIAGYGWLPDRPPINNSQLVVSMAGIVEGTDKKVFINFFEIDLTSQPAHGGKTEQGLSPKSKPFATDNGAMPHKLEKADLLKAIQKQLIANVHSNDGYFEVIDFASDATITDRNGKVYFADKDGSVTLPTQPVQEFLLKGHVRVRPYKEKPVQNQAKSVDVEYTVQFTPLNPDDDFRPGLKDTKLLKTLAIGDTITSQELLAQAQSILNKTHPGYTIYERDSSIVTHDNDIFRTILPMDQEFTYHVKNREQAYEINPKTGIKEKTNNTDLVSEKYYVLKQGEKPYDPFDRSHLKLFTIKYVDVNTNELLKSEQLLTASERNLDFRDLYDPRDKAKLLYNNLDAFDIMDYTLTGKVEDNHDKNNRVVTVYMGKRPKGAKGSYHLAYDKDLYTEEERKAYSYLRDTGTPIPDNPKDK
Put plainly: S. pyogenes streptokinase expression inhibitors, potency, dose response, plasminogen activation absorbance, OD405 (AID 1914).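 Note: secreted streptokinase activity via plasminogen activation per viability signal from cell pellet.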 It counts as functional, Streptococcus pyogenes M1 GAS.

The target of series [13] is T7, Cytochrome P450 1A2 (Homo sapiens, UniProt P05177).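 Note: PubChem cytochrome P450 panel assay, CYP1A2 panel member.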
T7 sequence (P05177 whole entry): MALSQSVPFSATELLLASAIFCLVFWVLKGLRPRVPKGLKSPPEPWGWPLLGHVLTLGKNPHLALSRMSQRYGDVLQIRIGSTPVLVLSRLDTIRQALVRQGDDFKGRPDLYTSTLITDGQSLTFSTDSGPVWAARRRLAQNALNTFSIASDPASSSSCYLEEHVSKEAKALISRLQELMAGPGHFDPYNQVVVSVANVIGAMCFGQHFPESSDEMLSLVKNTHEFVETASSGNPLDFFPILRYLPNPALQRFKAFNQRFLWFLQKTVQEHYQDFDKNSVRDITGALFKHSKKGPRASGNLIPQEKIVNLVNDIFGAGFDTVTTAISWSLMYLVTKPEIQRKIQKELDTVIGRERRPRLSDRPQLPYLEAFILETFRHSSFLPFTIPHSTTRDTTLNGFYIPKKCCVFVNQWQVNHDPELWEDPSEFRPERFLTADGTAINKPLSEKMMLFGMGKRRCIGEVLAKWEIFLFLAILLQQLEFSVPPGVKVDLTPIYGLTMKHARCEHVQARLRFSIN

In series [14] the target is Cytochrome P450 3A4 (Homo sapiens, UniProt P08684).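 Note: CYP3A4 tested as one member of a cytochrome P450 panel screen.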
Sequence of Cytochrome P450 3A4 (P08684 whole entry): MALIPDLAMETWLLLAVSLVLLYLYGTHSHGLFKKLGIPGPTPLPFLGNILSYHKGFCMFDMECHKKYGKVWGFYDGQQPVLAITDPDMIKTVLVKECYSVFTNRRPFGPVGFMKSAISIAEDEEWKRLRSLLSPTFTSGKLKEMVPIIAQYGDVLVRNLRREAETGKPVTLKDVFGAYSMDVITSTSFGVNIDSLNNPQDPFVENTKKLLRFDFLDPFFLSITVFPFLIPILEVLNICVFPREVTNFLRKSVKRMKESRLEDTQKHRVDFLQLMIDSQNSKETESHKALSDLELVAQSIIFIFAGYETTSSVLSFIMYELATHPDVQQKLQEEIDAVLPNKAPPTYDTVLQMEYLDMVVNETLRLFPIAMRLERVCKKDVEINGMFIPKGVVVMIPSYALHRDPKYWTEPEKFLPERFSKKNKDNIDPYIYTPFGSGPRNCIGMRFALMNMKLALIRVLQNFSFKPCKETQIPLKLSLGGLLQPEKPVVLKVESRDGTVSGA

Consider `Oc1ccc(CN2CCCCC2)nc1-c1ccccc1`, for which the IC50 in series [1] was 3.34 µM (active). Besides, the half-maximal effective concentration (EC50) in series [2] was 4.73 µM (active).
Consider `CCOC(=O)N1CCN(C(=O)c2ccc3oc(CCCc4ccccc4)nc3c2)CC1`, for which the concentration for a half-maximal effect (EC50) was 2.2 µM (active) in [3], 436 nM (active) in series [5] and 579 nM (active) in series [6]. Further, the IC50 in [4] and in [7] was > 67.5 µM (inactive) in each case.
Take `C=C(c1ccc2[nH]c(NC(=O)OC)nc2c1)c1cccs1`: the IC50 in series [4] is 2.72 µM (active); in series [7], > 67.6 µM (inactive).
In the case of `NC(=O)C1CCN(C(=O)CCNS(=O)(=O)c2ccccc2F)CC1`, in series [1], the IC50 was > 9.99 µM (inactive).
Regarding `N#Cc1cc(-c2cccc(Cl)c2)cnc1O`, the IC50 in series [1] is 2.29 µM (active).
Turning to `Sc1nnc(-c2cc3c(s2)-c2ccccc2CC3)o1`, the AC50 in [8] is 24.9 µM (active). Besides, in series [9], the 50% inhibitory concentration (IC50) was 67.4 µM (active). Further, the half-maximal effective concentration (EC50) in series [10] is 23.3 µM (inconclusive); in series [11], 11.5 µM (active); in [12], > 150 µM (not active); in series [2], 0.944 µM (active).
Turning to `CCn1nc2cc(C(=O)NCC34CC5CC(CC(C5)C3)C4)ccc2c1OC`, the results for the AC50 in series [13] and in series [14] were 12.6 µM (inconclusive) and “inconclusive”, respectively. In addition, the IC50 in series [1] was 1.94 µM (active).
